pIC50: −log10 of the molar value.

The target of assay [1] is cGMP-inhibited 3',5'-cyclic phosphodiesterase 3A (Homo sapiens, UniProt Q14432). The assay is described as follows: (§1) PDE3A Enzyme Inhibition: The commercially available 3H-cAMP Scintillation Proximity Assay (SPA, Perkin Elmer) system was used for enzyme inhibition studies. For the determination of the in vitro effect of example compounds on the PDE3A reactions 2 μl of the respective example compound solution in DMSO (serial dilutions) were placed in wells of microtiter plates (Isoplate-96/200W; Perkin Elmer). 50 μl of a dilution of PDE3A cell extract from Sf9 cells overexpressing human full length PDE3A (SB Drug Discovery, UK) in buffer A (50 mM Tris/HCl pH 7.5, 8.3 mM MgCl2, 1.7 mM EDTA, 0.2% BSA) was added. The dilution of the PDE3A cell extract was chosen such that the reaction kinetics was linear and less than 70% of the substrate was consumed (typical dilution 1:5000). The reaction was started by addition of 50 μl (0.025 μCi) of 1:2000 in buffer A w/o BSA diluted substrate [8-3H]adenosine 3′, 5′-cyclic phosphate (1 μCi/μl; Perkin Elmer). After incubation at room temperature for 60 min, the reaction was stopped by addition of 25 μl of a suspension containing 18 mg/ml yttrium scintillation proximity beads (Perkin Elmer) in water. The microtiter plates were sealed and measured in a Microbeta scintillation counter (PerkinElmer Wallac). IC50 values were determined from sigmoidal curves by plotting percentage PDE3A activity vs log compound concentration. A general note: In a scintillation proximity assay essentially only radioactivity close to the scintillant gives light.

In assay [2] the target is cGMP-inhibited 3',5'-cyclic phosphodiesterase 3B (Homo sapiens, UniProt Q13370). The assay is described as §1, with “PDE3B” for “PDE3A”, “1:6000).” for “1:5000).”.
Sequence of cGMP-inhibited 3',5'-cyclic phosphodiesterase 3B (Q13370 whole entry): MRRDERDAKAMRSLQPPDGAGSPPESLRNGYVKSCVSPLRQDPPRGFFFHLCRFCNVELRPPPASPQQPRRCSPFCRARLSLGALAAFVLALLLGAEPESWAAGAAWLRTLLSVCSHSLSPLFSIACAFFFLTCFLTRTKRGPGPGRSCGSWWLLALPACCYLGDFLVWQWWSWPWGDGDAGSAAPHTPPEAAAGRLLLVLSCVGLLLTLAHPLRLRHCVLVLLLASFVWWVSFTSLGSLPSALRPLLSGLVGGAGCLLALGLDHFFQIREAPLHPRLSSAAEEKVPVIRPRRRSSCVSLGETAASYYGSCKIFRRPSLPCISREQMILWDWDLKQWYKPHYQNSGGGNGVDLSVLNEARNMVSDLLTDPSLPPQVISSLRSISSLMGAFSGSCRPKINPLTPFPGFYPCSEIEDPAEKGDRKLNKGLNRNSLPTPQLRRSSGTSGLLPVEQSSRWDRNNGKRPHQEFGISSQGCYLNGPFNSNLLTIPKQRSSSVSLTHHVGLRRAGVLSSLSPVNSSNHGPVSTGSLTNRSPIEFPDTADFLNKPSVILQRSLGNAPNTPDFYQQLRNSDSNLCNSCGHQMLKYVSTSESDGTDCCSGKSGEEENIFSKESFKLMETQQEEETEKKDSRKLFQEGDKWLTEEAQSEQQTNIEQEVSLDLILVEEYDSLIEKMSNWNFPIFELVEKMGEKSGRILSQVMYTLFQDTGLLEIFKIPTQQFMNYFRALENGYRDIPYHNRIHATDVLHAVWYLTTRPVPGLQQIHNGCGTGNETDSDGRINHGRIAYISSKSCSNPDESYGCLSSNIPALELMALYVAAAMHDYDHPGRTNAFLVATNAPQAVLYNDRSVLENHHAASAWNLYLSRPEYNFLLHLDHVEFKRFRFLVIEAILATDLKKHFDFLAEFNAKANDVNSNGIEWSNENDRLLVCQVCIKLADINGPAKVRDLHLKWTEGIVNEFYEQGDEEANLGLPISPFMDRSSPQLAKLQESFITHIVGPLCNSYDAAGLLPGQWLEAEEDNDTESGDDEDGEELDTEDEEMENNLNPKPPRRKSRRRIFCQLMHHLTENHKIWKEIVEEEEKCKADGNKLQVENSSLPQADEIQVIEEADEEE

Sequence of cGMP-inhibited 3',5'-cyclic phosphodiesterase 3A (Q14432 whole entry): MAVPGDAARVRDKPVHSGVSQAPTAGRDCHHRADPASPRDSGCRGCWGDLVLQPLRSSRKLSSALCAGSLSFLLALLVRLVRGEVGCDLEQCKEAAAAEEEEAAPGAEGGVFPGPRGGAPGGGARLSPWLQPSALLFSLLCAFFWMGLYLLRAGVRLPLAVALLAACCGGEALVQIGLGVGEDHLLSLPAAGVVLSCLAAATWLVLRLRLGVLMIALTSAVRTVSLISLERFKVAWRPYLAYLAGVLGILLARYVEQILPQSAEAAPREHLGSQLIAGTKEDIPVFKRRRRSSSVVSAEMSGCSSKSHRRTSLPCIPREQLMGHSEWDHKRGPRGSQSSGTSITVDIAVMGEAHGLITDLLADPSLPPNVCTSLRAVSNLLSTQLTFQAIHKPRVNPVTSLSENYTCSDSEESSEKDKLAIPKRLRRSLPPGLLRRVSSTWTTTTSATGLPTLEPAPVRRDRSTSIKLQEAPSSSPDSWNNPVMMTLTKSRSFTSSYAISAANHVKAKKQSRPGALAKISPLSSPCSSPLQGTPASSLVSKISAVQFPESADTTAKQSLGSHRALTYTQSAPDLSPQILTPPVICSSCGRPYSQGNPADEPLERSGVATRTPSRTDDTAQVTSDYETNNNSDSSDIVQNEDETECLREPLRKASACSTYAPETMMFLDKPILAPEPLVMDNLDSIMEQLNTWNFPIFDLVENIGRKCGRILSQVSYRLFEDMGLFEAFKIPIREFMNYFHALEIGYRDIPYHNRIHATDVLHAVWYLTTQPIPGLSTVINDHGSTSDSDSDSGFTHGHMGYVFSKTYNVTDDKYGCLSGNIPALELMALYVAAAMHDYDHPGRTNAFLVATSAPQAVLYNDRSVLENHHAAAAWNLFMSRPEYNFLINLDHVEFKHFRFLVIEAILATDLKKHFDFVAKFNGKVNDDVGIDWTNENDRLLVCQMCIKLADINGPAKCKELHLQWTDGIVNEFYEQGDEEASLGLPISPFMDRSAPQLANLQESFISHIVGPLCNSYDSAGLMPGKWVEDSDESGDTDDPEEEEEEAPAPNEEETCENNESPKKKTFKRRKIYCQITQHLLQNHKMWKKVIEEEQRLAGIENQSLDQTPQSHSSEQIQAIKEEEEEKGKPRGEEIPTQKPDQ

Take `C[C@@H]1OC(=O)NN=C1c1ccc(N2CC(F)(F)C2)c(C(F)(F)F)c1`: the values for the negative logarithm of the IC50 (pIC50) in assay [1] and in assay [2] were 7.70 and 7.64, respectively.

As to `Cc1cc(C2=NNC(=O)OC2)ccc1-c1cccnc1`, the pIC50 was 6.96 in assay [1] and 7.36 in assay [2].

With `C[C@@H]1OC(=O)NN=C1c1ccc(-n2ccc(C(F)(F)F)n2)c(C(F)(F)F)c1`, the negative logarithm of the IC50 (pIC50) was 6.18 in assay [1] and 6.42 in assay [2].

On to `C[C@@H]1OC(=O)NN=C1c1ccc(N2CC(C)(O)C2)c(C(F)(F)F)c1`, for which the negative-log IC50 (pIC50) in assay [1] is 7.96; in assay [2], 8.05.

The term pIC50 denotes −log10 of the IC50, conventionally taken in molar units. A lower pIC50 goes with a large IC50.

Values taken from ChEMBL document CHEMBL5729281, “Dihydrooxadiazinones” (2022).
